Consider four compounds from patent publication US8614216B2.

A short description of data set [1]: Solid state chemical stability, HPLC analysis. Type of data set: physicochemical. The note with it: open flask. The text has this:
(§1) Samples were pulled at pre-determined time-points and analyzed for chemical stability.

The nature of data set [2]: Physical stability of the amorphous form on storage.
A short description of data set [3]: Solution state chemical stability, HPLC analysis. Type of data set: physicochemical. The note with it: sealed vial.
Excerpt: as §1

Data set [4] in a line: Moisture induced weight change in lactate salts. Type of data set: physicochemical. The note with it: 55% RH; listed as Lactate-trial 3.
Data set [5] in a line: Compaction studies (Carver Press, tablet hardness tester). Type of data set: physicochemical. The settings on record: 200 mg at 5000 psi, 0.8 cm die. On the procedure:
The resulting tensile strength and thickness of the compacts were measured using a VK 200 Tablet Hardness Tester and Mitutoyo thickness gauge.

A further data set can be described thus: physchem. The note with it: 23 °C, water, thermodynamic from solid.
Data set [6] is described as follows: Dynamic vapor sorption (DVS) hygroscopicity experiment. Type of data set: physicochemical. The protocol: All DVS measurements were carried out at 2.5% relative humidity change per hour.

`CN1CCN(c2ccc3nc(-c4c(N)c5c(F)cccc5[nH]c4=O)[nH]c3c2)CC1` [Bis-lactate]: in data set [1] (40° C./70% Relative humidity), the “Area % at Time = 0” value turned out to be 98.99 Area % and the “Area % at Time = 6 weeks” value came to 97.92 Area %.

`CC(O)C(=O)O.CN1CCN(c2ccc3nc(-c4c(N)c5c(F)cccc5[nH]c4=O)[nH]c3c2)CC1` [amorphous form]: the Time stable entry in data set [2] (75% relative humidity and 40° C.) was “more than 2 days”. Further, the “Stability of the solid form” value in data set [2] (ambient conditions) is on record as “stable”.

Regarding `CC(O)C(=O)O.CN1CCN(c2ccc3nc(-c4c(N)c5c(F)cccc5[nH]c4=O)[nH]c3c2)CC1` [Form A], the “Area % at Time = 0” value in data set [3] (5° C.) was found to be 98.80 Area %; in data set [3] (ambient temperature), 98.80 Area %; in data set [1] (30° C./60% Relative humidity), 98.41 Area %; in data set [1] (40° C./70% Relative humidity), 98.46 Area %. In addition, the “Area % at Time = 7 days” value is 98.60 Area % in data set [3] (5° C.) and 98.71 Area % in data set [3] (ambient temperature). Besides, the “Area % at Time = 6 weeks” value in data set [1] (30° C./60% Relative humidity) was 99.04 Area %; in data set [1] (40° C./70% Relative humidity) it was 98.55 Area %. Besides, in data set [4], the “Moisture induced % weight change” value was determined as 0.08%. The “Forms Compact” value in data set [5] (listed as Lactate-trial 1) is “Yes”; in data set [5] (listed as Lactate-trial 2) it was “Yes”; in data set [5] (listed as Lactate-trial 3), “Yes”; in data set [5] (listed as lactate salt), “forms strong compacts without a tendency to cap or chip”. Moreover, the “Tensile strength of compact” value in data set [5] (listed as Lactate-trial 1) was determined as 13.8 SC—Strong Cobb; in data set [5] (listed as Lactate-trial 2) it was 17.9 SC—Strong Cobb; in data set [5] (listed as Lactate-trial 3), 16.1 SC—Strong Cobb. Besides, the Thickness of compact in data set [5] (listed as Lactate-trial 1) is reported as 3.06 mm; in data set [5] (listed as Lactate-trial 2) it was 2.92 mm; in data set [5] (listed as Lactate-trial 3), 2.97 mm. The solubility – broadly, how much of the substance goes into solution per volume – in the data set “physchem” is above 400 mg/mL. For the same compound, the “Hygroscopicity in DVS experiment” value in data set [6] (below about 80% r.h., 2.5% relative humidity change per hour) is “not hygroscopic”. The “Water uptake in DVS experiment” value in data set [6] (exposure to r.h. conditions above 90%) was “significant water uptake”.

Regarding `CN1CCN(c2ccc3nc(-c4c(N)c5c(F)cccc5[nH]c4=O)[nH]c3c2)CC1` [Free base], the “Area % at Time = 0” value in data set [1] (30° C./60% Relative humidity) worked out at 97.38 Area %; in data set [1] (40° C./70% Relative humidity) it was 97.77 Area %. Moreover, the “Area % at Time = 6 weeks” value in data set [1] (30° C./60% Relative humidity) stood at 97.83 Area %; in data set [1] (40° C./70% Relative humidity) it was 98.23 Area %.
